Values quoted from earlier work in patent US20090118503A1, “FAAH INHIBITORS” (priority 2007, published 2009).

How the values were obtained:
MCF-7 cells = details: up to 100 μM

Row | SMILES | cell viability (as assessed by trypan blue) (MCF-7 cells) | ability to inhibit prostaglandin synthesis (prostaglandin synthesis)
1 | CCCCC/C=C\C/C=C\C/C=C\C/C=C\CCCC(=O)NCCO [anandamide] | No significant decrease in cell viability | 
2 | Cc1c(CC(=O)O)c2cc(O)ccc2n1C(=O)c1ccc(Cl)cc1 [desmethyl metabolite, (1-(4-chlorobenzoyl)-5-hydroxy-2-methyl-1H-indol-3-yl]acetic acid] |  | some ability to inhibit prostaglandin synthesis
